Values after ≈ are worked out from the molar mass of the structure shown.
Columns and labels:
Format in all cases: cell-based
S. pyogenes [1] = experiment: MIC determination, initial screen, S. pyogenes; conditions: Streptococcus pyogenes, ATCC14289; Table 1; ATCC 14289 (initial screen); 24 h, A595
Source text: (§1) The Streptococcus pyogenes strains, Klebsiella pneumoniae, Escherichia coli, Staphylococcus aureus, Enterococcus faecalis used in the antibacterial activity studies ATCC 14289, 49399, 13883, 25922, 13709, 29212, respectively, were obtained from the American Type Culture Collection, Rockville, Md. The strain E. coli imp- is a mutant strain of wild type E. coli with increased outer membrane permeability. In initial screens, E. coli imp- and S. pyrogenes (ATCC 14289) were used. The E. coli imp-strain was grown in LB broth, and the S. pyogenes strain was grown in Todd-Hewitt broth. Interesting compounds were further evaluated in the tier II screens against other bacterial screens. S. aureus was grown in trypticase soy broth, E. faecalis in Todd-Hewitt broth, wild type E. coli and K. pneumoniae, in nutrient broth. All bacterial were grown at 37° C.
(§2) The assays were carried out in 150 μL volume in duplicate in 96-well clear flat-bottom plates. The bacterial suspension from an overnight culture growth in appropriate medium was added to a solution of test compound in 4% DMSO in water. Final bacterial inoculum was approximately 10^5 -10^6 CFU/well. The percent growth of the bacteria in test wells relative to that observed for a well containing no compound was determined by measuring absorbance at 595 nm (A595) after 24 h. […] Both ampicillin and tetracycline were used as antibiotic-positive controls in each screening assay for S. pyogenes, E. coli imp-, E. coli, S. aureus, E. faecalis, K. pneumoniae and P. vulgaris. Ciprofloxacin was used as an antibiotic positive control in each screening assay for P. aeruginosa.

E. coli imp- = experiment: MIC determination, initial screen, E. coli imp-; conditions: Escherichia coli, 24 h, read-out: MIC E. coli imp
Source text: as §1, §2

K. pneumoniae = experiment: MIC determination, tier II screen, K. pneumoniae (#13883); conditions: Klebsiella pneumoniae; Table 2; 24 h, A595
Source text: as §1, §2

E. coli = experiment: MIC determination, tier II screen, wild type E. coli (#25922); conditions: Escherichia coli, Table 2, 24 h, A595
Source text: as §1, §2

S. pyogenes [2] = experiment: MIC determination, tier II screen, S. pyogenes (#49399); conditions: Streptococcus pyogenes; Table 2; 24 h, A595
Source text: as §1, §2

S. aureus = experiment: MIC determination, tier II screen, S. aureus (#13709); conditions: Staphylococcus aureus; Table 2; 24 h, A595
Source text: as §1, §2

E. faecalis = experiment: MIC determination, tier II screen, E. faecalis (#29212); conditions: Enterococcus faecalis; Table 2; 24 h, A595
Source text: as §1, §2

Work on COc1cc2nc(N3CCC(Nc4ccc(C(=O)O)cc4)CC3)[nH]c(=O)c2cc1OC [Compound 30, 4-[1-(6,7-Dimethoxy-4-oxo-3,4-dihydroquinazolin-2-yl)piperidin-4-ylamino]benzoic acid] yielded an MIC (S. pyogenes [1]) of over 20 µM and an MIC (E. coli imp-) of over 20 µM.
COc1cc2nc(N3CCC(Nc4ccc(C(=O)O)cc4)CC3)nc(OC)c2cc1OC [Compound 29, 4-[1-(4,6,7-Trimethoxyquinazolin-2-yl)piperidin-4-ylamino]benzoic acid] gave an MIC (S. pyogenes [1]) of over 20 µM and an MIC (E. coli imp-) of over 20 µM.
COc1cc2cnc(N3CCC(Nc4ccc(C(=O)O)cc4)CC3)nc2cc1OC [Compound 28, 4-[1-(6,7-Dimethoxyquinazolin-2-yl)piperidin-4-ylamino]benzoic acid] was tested, and the MIC (S. pyogenes [1]) was over 20 µM and the MIC (E. coli imp-) was over 20 µM.
COC(=O)c1nc(Cl)c(NC2CCN(c3nc(N)c4cc(OC)c(OC)cc4n3)CC2)nc1N [Compound 1, 3-Amino-5-[1-(4-amino-6,7-dimethoxy-quinazolin-2-yl)-piperidin-4-ylamino]-6-chloro-pyrazine-2-carboxylic acid methyl ester] was tested, and the MIC (S. pyogenes [1]) was 12 to 25 µM (≈ 5.87 to 12.2 µg/mL) and the MIC (E. coli imp-) was over 25 µM.
For COc1cc2nc(N3CCC(Nc4ccc(C(=O)OC(C)(C)C)cc4[N+](=O)[O-])CC3)nc(N)c2cc1OC [Compound 6, 4-[1-(4-Amino-6,7-dimethoxyquinazolin-2-yl)piperidin-4-ylamino]-3-nitrobenzoic acid tert-butyl ester], the MIC (S. pyogenes [1]) was 50 to 100 µM (≈ 26.2 to 52.5 µg/mL) and the MIC (E. coli imp-) was 25 to 50 µM (≈ 13.1 to 26.2 µg/mL).
With COc1cc2nc(N3CCC(Nc4ccc(C(=O)OC(C)(C)C)cc4)CC3)nc(OC)c2cc1OC [Compound 14, 4-[1-(4,6,7-Trimethoxyquinazolin-2-yl)piperidin-4-ylamino]benzoic acid tert-butyl ester] the MIC (S. pyogenes [1]) was under 100 µM and the MIC (E. coli imp-) was under 100 µM.
Work on COC(=O)c1ccc(NC2CCN(c3nc(N)c4cc(OC)c(OC)cc4n3)CC2)cc1 [Compound 4, 4-[1-(4-Amino-6,7-dimethoxy-quinazolin-2-yl)-piperidin-4-ylamino]-benzoic acid methyl ester] yielded an MIC (S. pyogenes [1]) of 5 to 25 µM (≈ 2.19 to 10.9 µg/mL), an MIC (E. coli imp-) of 5 to 25 µM (≈ 2.19 to 10.9 µg/mL) and an MIC (K. pneumoniae) of over 100 µM. The MIC (E. coli) was over 100 µM, the MIC (S. pyogenes [2]) was 5 to 25 µM (≈ 2.19 to 10.9 µg/mL) and the MIC (S. aureus) was over 100 µM. It also gave an MIC (E. faecalis) of 20 to 40 µM (≈ 8.75 to 17.5 µg/mL).
COc1cc2nc(N3CCC(Nc4ccc(C(=O)O)cc4)CC3)nc(Nc3ccc(C)cc3)c2cc1OC [Compound 31, 4-[1-(6,7-Dimethoxy-4-p-tolylaminoquinazolin-2-yl)piperidin-4-ylamino]benzoic acid] gave an MIC (S. pyogenes [1]) of over 20 µM and an MIC (E. coli imp-) of over 20 µM.
With COc1cc2nc(N3CCC(Nc4ccc(C(=O)O)cn4)CC3)nc(N)c2cc1OC [Compound 20, 6-[1-(4-Amino-6,7-dimethoxyquinazolin-2-yl)piperidin-4-ylamino]nicotinic acid] the MIC (S. pyogenes [1]) was over 20 µM and the MIC (E. coli imp-) was over 50 µM.
With CC(C)(C)OC(=O)c1ccc(NC2CCN(c3nc(N)c4ccccc4n3)CC2)cc1 [Compound 17, 4-[1-(4-Aminoquinazolin-2-yl)piperidin-4-ylamino]benzoic acid tert-butyl ester] the MIC (S. pyogenes [1]) was under 100 µM and the MIC (E. coli imp-) was under 100 µM.
Compound COc1cc2nc(N3CCC(Nc4cnc(C(=O)O)c(N)n4)CC3)nc(N)c2cc1OC [Compound 19, 3-Amino-5-[1-(4-amino-6,7-dimethoxyquinazolin-2-yl)piperidin-4-ylamino]pyrazine-2-carboxylic acid] has an MIC (S. pyogenes [1]) of over 25 µM and an MIC (E. coli imp-) of over 25 µM.
COC(=O)c1ncc(NC2CCN(c3nc(N)c4cc(OC)c(OC)cc4n3)CC2)nc1N [Compound 2, 3-Amino-5-[1-(4-amino-6,7-dimethoxy-quinazolin-2-yl)-piperidin-4-ylamino]-pyrazine-2-carboxylic acid methyl ester] showed an MIC (S. pyogenes [1]) of over 50 µM and an MIC (E. coli imp-) of over 50 µM.
COc1cc2cnc(N3CCC(Nc4ccc(C(=O)OC(C)(C)C)cc4)CC3)nc2cc1OC [Compound 13, 4-[1-(6,7-Dimethoxyquinazolin-2-yl)piperidin-4-ylamino]benzoic acid tert-butyl ester] gave an MIC (S. pyogenes [1]) of over 20 µM and an MIC (E. coli imp-) of over 20 µM.
Work on COc1cc2nc(N3CCC(Nc4ccc(C(=O)OC(C)(C)C)cc4)CC3)nc(Nc3ccc(C)cc3)c2cc1OC [Compound 16, 4-[1-(6,7-Dimethoxy-4-p-tolylaminoquinazolin-2-yl)piperidin-4-ylamino]benzoic acid tert-butyl ester] yielded an MIC (S. pyogenes [1]) of 2.5 to 5 µM (≈ 1.42 to 2.85 µg/mL) and an MIC (E. coli imp-) of 10 to 20 µM (≈ 5.7 to 11.4 µg/mL).
In the case of COc1cc2nc(N3CCC(Nc4ccc(C(=O)O)cc4)CC3)nc(N)c2cc1OC [Compound 22, 4-[1-(4-Amino-6,7-dimethoxyquinazolin-2-yl)piperidin-4-ylamino]benzoic acid], the MIC (S. pyogenes [1]) is reported as over 25 µM, the MIC (E. coli imp-) is reported as 0.4 to 2 µM (≈ 0.169 to 0.847 µg/mL) and the MIC (K. pneumoniae) is reported as 6 to 12 µM (≈ 2.54 to 5.08 µg/mL). It also gave an MIC (E. coli) of 60 to 80 µM (≈ 25.4 to 33.9 µg/mL), an MIC (S. pyogenes [2]) of over 25 µM and an MIC (S. aureus) of 6 to 12 µM (≈ 2.54 to 5.08 µg/mL). The MIC (E. faecalis) was over 100 µM.
With COc1cc2nc(N3CCC(Nc4nc(N)c(C(=O)O)nc4Cl)CC3)nc(N)c2cc1OC [Compound 18, 3-Amino-5-[1-(4-amino-6,7-dimethoxyquinazolin-2-yl)piperidin-4-ylamino]-6-chloropyrazine-2-carboxylic acid] the MIC (S. pyogenes [1]) was over 100 µM and the MIC (E. coli imp-) was over 100 µM.
With COC(=O)c1ccc(NC2CCN(c3nc(N)c4cc(OC)c(OC)cc4n3)CC2)nc1 [Compound 3, 6-[1-(4-Amino-6,7-dimethoxy-quinazolin-2-yl)-piperidin-4-ylamino]-nicotinicacid methyl ester] the MIC (S. pyogenes [1]) was 25 to 50 µM (≈ 11 to 21.9 µg/mL) and the MIC (E. coli imp-) was over 50 µM.
In the case of COc1cc2nc(N3CCC(Nc4ccc(C(=O)O)cc4[N+](=O)[O-])CC3)nc(N)c2cc1OC [Compound 21, 4-[1-(4-Amino-6,7-dimethoxyquinazolin-2-yl)piperidin-4-ylamino]-3-nitrobenzoic acid], the MIC (S. pyogenes [1]) is reported as over 20 µM and the MIC (E. coli imp-) is reported as over 20 µM.
For Nc1nc(N2CCC(Nc3ccc(C(=O)O)cc3)CC2)nc2ccccc12 [Compound 32, 4-[1-(4-Aminoquinazolin-2-yl)piperidin-4-ylamino]benzoic acid], the MIC (S. pyogenes [1]) was over 100 µM and the MIC (E. coli imp-) was over 100 µM.
COc1cc2nc(N3CCC(Nc4ccc(C(=O)OC(C)(C)C)cc4)CC3)[nH]c(=O)c2cc1OC [Compound 15, 4-[1-(6,7-Dimethoxy-4-oxo-3,4-dihydroquinazolin-2-yl)piperidin-4-ylamino]benzoic acid tert-butyl ester] was tested, and the MIC (S. pyogenes [1]) was over 100 µM and the MIC (E. coli imp-) was over 100 µM.
COc1cc2nc(N3CCC(Nc4ccc(C(=O)OC(C)(C)C)cc4)CC3)nc(N)c2cc1OC [Compound 5, 4-[1-(4-Amino-6,7-dimethoxy-quinazolin-2-yl)-piperidin-4-ylamino]-benzoic acid tert-butyl ester] showed an MIC (S. pyogenes [1]) of 3 to 6 µM (≈ 1.44 to 2.88 µg/mL), an MIC (E. coli imp-) of 6 to 12 µM (≈ 2.88 to 5.75 µg/mL) and an MIC (K. pneumoniae) of over 100 µM. The MIC (E. coli) was over 100 µM, the MIC (S. pyogenes [2]) was 6 to 12 µM (≈ 2.88 to 5.75 µg/mL) and the MIC (S. aureus) was over 100 µM. It also gave an MIC (E. faecalis) of 6 to 12 µM (≈ 2.88 to 5.75 µg/mL).
